Values of other authors, collected in patent US7943663B2, “Process and an apparatus for producing episesamin-rich compositions” (Suntory Holdings Limited, priority 2005, dated 2011).

What was measured:
[1] = test system: fatty acid synthases; details: rats, separately administered orally; sesamin versus episesamin
[2] = rat, po
[3] = test system: β-oxidation enzymes in the liver; details: rats, separately administered orally; compared with sesamin

c1cc2c(cc1[C@H]1OC[C@H]3[C@@H]1CO[C@H]3c1ccc3c(c1)OCO3)OCO2 [Episesamin, episesamin]
activity for inhibiting fatty acid synthases [1]: no difference
transfer into organs (in vivo distribution) [2]: at least twice as much as that of sesamin
gene expression and enzymatic activity of β-oxidation enzymes in the liver [3]: markedly increased

c1cc2c(cc1[C@H]1OC[C@H]3[C@@H]1CO[C@@H]3c1ccc3c(c1)OCO3)OCO2 [Sesamin, sesamin]
activity for inhibiting fatty acid synthases [1]: no difference
